For the series, the system named is CCRIS mutagenicity, Ames/micronucleus/aberration tests. In words: CCRIS mutagenicity studies.
Where [1] appears, read: Test System: AMES SALMONELLA TYPHIMURIUM, Strain/Indicator: TA98, Metabolic Activation: NONE, Method: STANDARD PLATE.
[2] abbreviates: Test System: AMES SALMONELLA TYPHIMURIUM, Strain/Indicator: TA98, Metabolic Activation: RAT, LIVER, S-9, AROCLOR 1254, Method: STANDARD PLATE.
Where [3] appears, read: Test System: AMES SALMONELLA TYPHIMURIUM, Strain/Indicator: TA100, Metabolic Activation: NONE, Method: STANDARD PLATE.
The mark [4] stands for this setting: Test System: AMES SALMONELLA TYPHIMURIUM, Strain/Indicator: TA100, Metabolic Activation: RAT, LIVER, S-9, AROCLOR 1254, Method: STANDARD PLATE.
Where [5] appears, read: Test System: AMES SALMONELLA TYPHIMURIUM, Strain/Indicator: TA1535, Metabolic Activation: NONE, Method: STANDARD PLATE.
Setting [6] is: Test System: AMES SALMONELLA TYPHIMURIUM, Strain/Indicator: TA1535, Metabolic Activation: RAT, LIVER, S-9, AROCLOR 1254, Method: STANDARD PLATE.
Where [7] appears, read: Test System: AMES SALMONELLA TYPHIMURIUM, Strain/Indicator: TA1537, Metabolic Activation: NONE, Method: STANDARD PLATE.
The mark [8] stands for this setting: Test System: AMES SALMONELLA TYPHIMURIUM, Strain/Indicator: TA1537, Metabolic Activation: RAT, LIVER, S-9, AROCLOR 1254, Method: STANDARD PLATE.

The source made the active and inactive calls. No rule for the calls is given here.

In the case of `CC1=CC(=O)c2ccccc2C1=O`, the mutagenic call was “active; positive” (Test System: AMES SALMONELLA TYPHIMURIUM, Strain/Indicator: TA97, Metabolic Activation: NONE, Method: PREINCUBATION); “inactive; negative” (Test System: AMES SALMONELLA TYPHIMURIUM, Strain/Indicator: TA97, Metabolic Activation: RAT, LIVER, S-9, PHENOBARBITAL AND 5,6-BENZOFLAVONE, Method: PREINCUBATION); “inactive; negative” (Test System: AMES SALMONELLA TYPHIMURIUM, Strain/Indicator: TA97A, Metabolic Activation: NONE, Method: PREINCUBATION); “inactive; negative” (Test System: AMES SALMONELLA TYPHIMURIUM, Strain/Indicator: TA98, Metabolic Activation: NONE, Method: PREINCUBATION); “inactive; negative” (Test System: AMES SALMONELLA TYPHIMURIUM, Strain/Indicator: TA98, Metabolic Activation: NONE, Method: SPIRAL ASSAY); “inactive; negative” under setting [1]. The mutagenic call was “inactive; negative” (Test System: AMES SALMONELLA TYPHIMURIUM, Strain/Indicator: TA98, Metabolic Activation: RAT, LIVER, S-9, AROCLOR 1254, Method: SPIRAL ASSAY); “inactive; negative” under setting [2]; “active; positive” (Test System: AMES SALMONELLA TYPHIMURIUM, Strain/Indicator: TA98, Metabolic Activation: RAT, LIVER, S-9, PHENOBARBITAL AND 5,6-BENZOFLAVONE, Method: PREINCUBATION); “inactive; negative” (Test System: AMES SALMONELLA TYPHIMURIUM, Strain/Indicator: TA100, Metabolic Activation: NONE, Method: SPIRAL ASSAY); “inactive; negative” under setting [3]; “inactive; negative” (Test System: AMES SALMONELLA TYPHIMURIUM, Strain/Indicator: TA100, Metabolic Activation: RAT, LIVER, S-9, AROCLOR 1254, Method: SPIRAL ASSAY). The mutagenic call is, setting by setting: under setting [4], “inactive; negative”; (Test System: AMES SALMONELLA TYPHIMURIUM, Strain/Indicator: TA100, Metabolic Activation: RAT, LIVER, S-9, PHENOBARBITAL AND 5,6-BENZOFLAVONE, Method: PREINCUBATION) “inactive; negative”; (Test System: AMES SALMONELLA TYPHIMURIUM, Strain/Indicator: TA102, Metabolic Activation: NONE, Method: PREINCUBATION) “inactive; negative”; (Test System: AMES SALMONELLA TYPHIMURIUM, Strain/Indicator: TA102, Metabolic Activation: NONE, Method: STANDARD PLATE) “inactive; negative”; (Test System: AMES SALMONELLA TYPHIMURIUM, Strain/Indicator: TA102, Metabolic Activation: RAT, LIVER, S-9, PHENOBARBITAL AND 5,6-BENZOFLAVONE, Method: PREINCUBATION) “inactive; negative”; (Test System: AMES SALMONELLA TYPHIMURIUM, Strain/Indicator: TA104, Metabolic Activation: RAT, LIVER, S-9, PHENOBARBITAL AND 5,6-BENZOFLAVONE, Method: PREINCUBATION) “inactive; negative”. Also, the mutagenic call was “inactive; negative” (Test System: AMES SALMONELLA TYPHIMURIUM, Strain/Indicator: TA1535, Metabolic Activation: NONE, Method: PREINCUBATION); “inactive; negative” (Test System: AMES SALMONELLA TYPHIMURIUM, Strain/Indicator: TA1535, Metabolic Activation: NONE, Method: SPIRAL ASSAY); “inactive; negative” under setting [5]; “inactive; negative” (Test System: AMES SALMONELLA TYPHIMURIUM, Strain/Indicator: TA1535, Metabolic Activation: RAT, LIVER, S-9, AROCLOR 1254, Method: SPIRAL ASSAY); “inactive; negative” under setting [6]; “inactive; negative” (Test System: AMES SALMONELLA TYPHIMURIUM, Strain/Indicator: TA1535, Metabolic Activation: RAT, LIVER, S-9, PHENOBARBITAL AND 5,6-BENZOFLAVONE, Method: PREINCUBATION). The mutagenic call by setting is: (Test System: AMES SALMONELLA TYPHIMURIUM, Strain/Indicator: TA1537, Metabolic Activation: NONE, Method: PREINCUBATION) “inactive; negative”; (Test System: AMES SALMONELLA TYPHIMURIUM, Strain/Indicator: TA1537, Metabolic Activation: NONE, Method: SPIRAL ASSAY) “inactive; negative”; under setting [7], “inactive; negative”; (Test System: AMES SALMONELLA TYPHIMURIUM, Strain/Indicator: TA1537, Metabolic Activation: RAT, LIVER, S-9, AROCLOR 1254, Method: SPIRAL ASSAY) “inactive; negative”; under setting [8], “inactive; negative”; (Test System: AMES SALMONELLA TYPHIMURIUM, Strain/Indicator: TA1537, Metabolic Activation: RAT, LIVER, S-9, PHENOBARBITAL AND 5,6-BENZOFLAVONE, Method: PREINCUBATION) “inactive; negative”. The mutagenic call is, setting by setting: (Test System: AMES SALMONELLA TYPHIMURIUM, Strain/Indicator: TA1538, Metabolic Activation: NONE, Method: PREINCUBATION) “inactive; negative”; (Test System: AMES SALMONELLA TYPHIMURIUM, Strain/Indicator: TA1538, Metabolic Activation: RAT, LIVER, S-9, PHENOBARBITAL AND 5,6-BENZOFLAVONE, Method: PREINCUBATION) “inactive; negative”; (Test System: AMES SALMONELLA TYPHIMURIUM, Strain/Indicator: TA2637, Metabolic Activation: NONE, Method: PREINCUBATION) “active; positive”; (Test System: AMES SALMONELLA TYPHIMURIUM, Strain/Indicator: TA2637, Metabolic Activation: RAT, LIVER, S-9, PHENOBARBITAL AND 5,6-BENZOFLAVONE, Method: PREINCUBATION) “active; positive”; (Test System: AMES SALMONELLA TYPHIMURIUM, Strain/Indicator: TA2638, Metabolic Activation: NONE, Method: STANDARD PLATE) “inactive; negative”; (Test System: E. COLI, Strain/Indicator: IC202, Metabolic Activation: NONE, Method: STANDARD PLATE) “active; positive”. Also, the mutagenic call is “active; positive” (Test System: E. COLI, Strain/Indicator: IC203, Metabolic Activation: NONE, Method: STANDARD PLATE); “inactive; negative” (Test System: E. COLI, Strain/Indicator: IC5059, Metabolic Activation: NONE, Method: STANDARD PLATE); “inactive; negative” (Test System: E. COLI, Strain/Indicator: IC5064, Metabolic Activation: NONE, Method: STANDARD PLATE); “inactive; negative” (Test System: E. COLI, Strain/Indicator: IC5184, Metabolic Activation: NONE, Method: STANDARD PLATE); “inactive; negative” (Test System: E. COLI, Strain/Indicator: IC5185, Metabolic Activation: NONE, Method: STANDARD PLATE); “inactive; negative” (Test System: E. COLI, Strain/Indicator: WP2 (PKM101), Metabolic Activation: NONE, Method: STANDARD PLATE). The mutagenic call (Test System: E. COLI, Strain/Indicator: WP2 UVRA (PKM101), Metabolic Activation: NONE, Method: STANDARD PLATE) was “inactive; negative”.

For the compound `O=S1(=O)OC(c2cc(Br)c(O)c(Br)c2)(c2cc(Br)c(O)c(Br)c2)c2c(Br)c(Br)c(Br)c(Br)c21`, the mutagenic call reads like this: under setting [1], “inactive; negative”; under setting [2], “inactive; negative”; under setting [3], “inactive; negative”; under setting [4], “inactive; negative”; under setting [5], “inactive; negative”; under setting [6], “inactive; negative”. In addition, the mutagenic call is “inactive; negative” under setting [7]; “inactive; negative” under setting [8]; “inactive; negative” (Test System: AMES SALMONELLA TYPHIMURIUM, Strain/Indicator: TA1538, Metabolic Activation: NONE, Method: STANDARD PLATE); “inactive; negative” (Test System: AMES SALMONELLA TYPHIMURIUM, Strain/Indicator: TA1538, Metabolic Activation: RAT, LIVER, S-9, AROCLOR 1254, Method: STANDARD PLATE); “inactive; negative” (Test System: MOUSE LYMPHOMA, Strain/Indicator: L5178Y (TK+/TK-), Metabolic Activation: NONE, Method: SUSPENSION/PLATE); “inactive; negative” (Test System: MOUSE LYMPHOMA, Strain/Indicator: L5178Y (TK+/TK-), Metabolic Activation: RAT, LIVER, S-9, AROCLOR 1254, Method: SUSPENSION/PLATE).

Turning to `COc1cc(O)c2c(=O)c(-c3ccc(O)cc3)coc2c1`, the mutagenic call (Test System: SYRIAN HAMSTER EMBRYO CELLS, Strain/Indicator: HPRT/6-THIOGUANINE, Metabolic Activation: NONE, Method: PLATE) was “inactive; negative”.

(Values after PubChem BioAssay AID1259407 (Chemical Carcinogenesis Research Information System (CCRIS), 2018).)
